Each compound was assayed against His-tagged recombinant human TrkA (Homo sapiens (Human), UniProt P04629) (assay: TrkA LanthaScreen Eu Kinase Binding Assay). Conditions: averaged IC50; TR-FRET binding, 60 min, 22° C.; read-out: TrkA Enzyme IC50.
How it was run: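 TR-FRET binding: 5 nM His-tagged human TrkA cytoplasmic domain with 4 nM Alexa-Fluor Tracer 236, 2 nM biotin anti-His and 2 nM Eu-streptavidin. Buffer was 25 mM MOPS pH 7.5, 5 mM MgCl2, 0.005% Triton X-100, 2% DMSO, 60 min at 22° C. IC50 from a four-parameter fit of ratiometric percent of control.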

Chain of His-tagged recombinant human TrkA (P04629 440-796): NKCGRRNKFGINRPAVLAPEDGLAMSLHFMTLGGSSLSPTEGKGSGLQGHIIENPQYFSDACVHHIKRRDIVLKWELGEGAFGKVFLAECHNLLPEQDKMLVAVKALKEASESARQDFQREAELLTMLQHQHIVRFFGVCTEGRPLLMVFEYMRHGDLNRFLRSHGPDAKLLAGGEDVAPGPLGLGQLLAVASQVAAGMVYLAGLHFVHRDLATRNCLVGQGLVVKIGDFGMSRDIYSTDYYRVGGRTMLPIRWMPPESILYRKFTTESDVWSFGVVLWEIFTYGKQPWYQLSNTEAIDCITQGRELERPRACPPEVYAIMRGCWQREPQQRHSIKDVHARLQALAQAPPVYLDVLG

Row | SMILES | IC50 [nM]
1 | Cc1c(-c2ccn(C)c(=O)c2)nn(-c2ccccc2)c1NC(=O)N[C@@H]1c2ccccc2C(C)(C)C[C@H]1O (relative stereo) [Example 107, 1-(trans-2-hydroxy-4,4-dimethyl-1,2,3,4-tetrahydronaphthalen-1-yl)-3-(4-methyl-3-(1-methyl-2-oxo-1,2-dihydropyridin-4-yl)-1-phenyl-1H-pyrazol-5-yl)urea] | < 100
2 | Cc1c(-c2cnn(C)c2)nn(-c2ccccc2)c1NC(=O)N[C@@H]1c2ccccc2C2(CC2)[C@H]1O (relative stereo) [Example 55, 1-(1′,4-dimethyl-1-phenyl-1H,1′H-[3,4′-bipyrazol]-5-yl)-3-(trans-2′-hydroxy-2′,3′-dihydrospiro[cyclopropane-1,1′-inden]-3′-yl)urea] | < 100
3 | Cc1c(-c2cnn(C)c2)nn(-c2ccccc2)c1NC(=O)N[C@@H]1c2ccc(F)cc2C(C)(C)C[C@H]1O [Example 89, 1-(1′,4-dimethyl-1-phenyl-1H,1′H-[3,4′-bipyrazol]-5-yl)-3-((1,2-trans)-6-fluoro-2-hydroxy-4,4-dimethyl-1,2,3,4-tetrahydronaphthalen-1-yl)urea] | < 100
4 | Cc1c(-c2cnn(C)c2)nn(-c2ccccc2)c1NC(=O)NC1CC(C2CC2)Oc2ccc(Br)cc21 (stereo not drawn) [Example 33, 1-(6-bromo-2-cyclopropylchroman-4-yl)-3-(1′,4-dimethyl-1-phenyl-1H,1′H-[3,4′-bipyrazo]-5-yl)urea] | < 100
5 | Cc1c(-c2cnn(C)c2)nn(-c2ccccc2)c1NC(=O)NC1CCS(=O)(=O)c2ccc(Br)cc21 (stereo not drawn) [Example 113, 1-(6-bromo-1,1-dioxidothiochroman-4-yl)-3-(1′,4-dimethyl-1-phenyl-1H,1′H-[3,4′-bipyrazol]-5-yl)urea] | 100 to 1000
6 | CNC(=O)c1nn(-c2ccccc2)c(NC(=O)N[C@@H]2c3cc(Cl)ccc3C(C)(C)C[C@H]2O)c1C (relative stereo) [Example 125, 5-(3-(trans-7-chloro-2-hydroxy-4,4-dimethyl-1,2,3,4-tetrahydronaphthalen-1-yl)ureido)-N,4-dimethyl-1-phenyl-1H-pyrazole-3-carboxamide] | < 100
7 | COCc1ccc2c(c1)C(NC(=O)Nc1c(C)c(-c3cnn(C)c3)nn1-c1ccccc1)CN(CC(F)(F)F)C2C (stereo not drawn) [Example 109, 1-(1′,4-dimethyl-1-phenyl-1H,1′H-[3,4′-bipyrazol]-5-yl)-3-(6-(methoxymethyl)-1-methyl-2-(2,2,2-trifluoroethyl)-1,2,3,4-tetrahydroisoquinolin-4-yl)urea] | < 100
8 | Cc1c(-c2cnn(C)c2)nn(-c2ccccc2)c1NC(=O)N[C@@H]1c2cc(Cl)ccc2C[C@H]1O [Example 70, 1-((1,2-trans)-6-chloro-2-hydroxy-2,3-dihydro-1H-inden-1-yl)-3-(1′,4-dimethyl-1-phenyl-1H,1′H-[3,4′-bipyrazol]-5-yl)urea] | < 100
9 | Cc1c(-c2cnn(C)c2)nn(-c2ccccc2)c1NC(=O)NC1CCCc2ccccc21 (stereo not drawn) [Example 1, 1-(1′,4-dimethyl-1-phenyl-1H,1′H-3,4′-bipyrazol-5-yl)-3-(1,2,3,4-tetrahydronaphthalen-1-yl)urea] | < 100
10 | Cc1c(-c2cnn(C)c2)nn(-c2ccccc2)c1NC(=O)NC1CC(C)Oc2ccc(F)cc21 (stereo not drawn) [Example 14, 1-(1′,4-dimethyl-1-phenyl-1H,1′H-[3,4′-bipyrazol]-5-yl)-3-(6-fluoro-2-methylchroman-4-yl)urea] | 100 to 1000
11 | COCCN1CCc2ccccc2C(NC(=O)Nc2c(C)c(-c3cnn(C)c3)nn2-c2ccccc2)C1 (stereo not drawn) [Example 17, 1-(1′,4-dimethyl-1-phenyl-1H,1′H-3,4′-bipyrazol-5-yl)-3-(3-(2-methoxyethyl)-2,3,4,5-tetrahydro-1H-benzo[d]azepin-1-yl)urea] | 100 to 1000
12 | CNC(=O)c1nn(-c2ccccc2)c(NC(=O)N[C@@H]2c3ccccc3C(C)(C)C[C@H]2O)c1C (relative stereo) [Example 124, 5-(3-(trans-2-hydroxy-4,4-dimethyl-1,2,3,4-tetrahydronaphthalen-1-yl)ureido)-N,4-dimethyl-1-phenyl-1H-pyrazole-3-carboxamide] | < 100
